Test results taken from ChEMBL document CHEMBL4266028, “Salviachinensines A-F, Antiproliferative Phenolic Derivatives from the Chinese Medicinal Plant Salvia chinensis” (J Nat Prod, 2018).
The source made the active and inactive calls. The rule behind the calls is not given here.

Assays:
Format in all cases: functional, cell-based
MOLM-13 [1] = experiment: Antiproliferative activity against human MOLM13 cells by Cell-Titer Glo assay
MOLM-14 = experiment: Antiproliferative activity against human MOLM14 cells by Cell-Titer Glo assay
MV4-11 = experiment: Antiproliferative activity against human MV4-11 cells by Cell-Titer Glo assay
MOLM-13 [2] = experiment: Cell cycle arrest in human MOLM13 cells assessed as accumulation at G0/G1 phase at 5 uM by flow cytometry
MOLM-13 [3] = experiment: Induction of apoptosis in human MOLM13 cells assessed as increase in PARP cleavage at 5 uM after 24 hrs by Western blot analysis
MOLM-13 [4] = experiment: Induction of apoptosis in human MOLM13 cells assessed as increase in caspase-3 cleavage at 5 uM after 24 hrs by Western blot analysis

Row | SMILES | IC50 (MOLM-13 [1]) [µM] | IC50 (MOLM-14; Homo sapiens, MOLM-14) [µM] | IC50 (MV4-11) [µM] | Activity (MOLM-13 [2]) | Activity (MOLM-13 [3]) | Activity (MOLM-13 [4]) | IC50 (MOLM-14; molm-14) [µM]
1 | O=C1C[C@H]2c3cc(O)c(O)cc3[C@H](c3ccc(O)c(O)c3)[C@H]2O1 | 2.3 | 7.1 | > 10 | Active | Active | Active | 
2 | COC(=O)[C@H](O)Cc1ccc(O)c(O)c1 | 7.5 | > 10 | > 10 |  |  |  | 
3 | COC(=O)[C@@H](Cc1ccc(O)c(O)c1)OC(=O)/C=C/c1ccc(O)c(O)c1/C=C/c1ccc(O)c(O)c1 | 6.7 | > 10 | > 10 |  |  |  | 
4 | O=C(/C=C/c1ccc(O)c(O)c1/C=C/c1ccc(O)c(O)c1)O[C@H](Cc1ccc(O)c(O)c1)C(=O)O [SALVIANOLIC ACID A] | 2.5 |  | > 10 |  |  |  | 6.2
5 | COC(=O)[C@@H](Cc1ccc(O)c(O)c1)OC(=O)/C=C/c1ccc(O)c(O)c1 [METHYL ROSMARINATE] | 8.4 | > 10 | > 10 |  |  |  | 
6 | O=C(O)/C=C/c1ccc(O)c(O)c1 [CAFFEIC ACID] | 6.4 | > 10 | > 10 |  |  |  | 
7 | COC(=O)[C@H](O)Cc1ccc2c(c1)O[C@H]([C@H](OC)c1ccc(O)c(O)c1)O2 | 5.2 | > 10 | > 10 |  |  |  | 
8 | Nc1ccc(-c2ccc3ncc4ccc(=O)n(-c5cccc(C(F)(F)F)c5)c4c3c2)cn1 | < 0.001 | < 0.001 | < 0.001 |  |  |  | 
9 | O=C(/C=C/c1ccc(O)c(O)c1)O[C@H](Cc1ccc(O)c(O)c1)C(=O)O [ROSMARINIC ACID] | 2.9 | 7.1 | > 10 |  |  |  | 
